The SangsterLogP compilation

Assay: method code SF-HPLC, from DOI: 10.1002/jps.2600840914, PMID: 8537890

First: CCCc1cc(=O)ss1
Second: CCc1cc(=O)ss1
The logP of the first is higher: 2.24 for the first, 1.69 for the second.

First: Cc1cssc1=O
Second: Cc1cssc1=S
The logP of the first is lower: 1.33 for the first, 2.18 for the second.

Compared with `Cc1ssc(=S)c1C`, `Cc1ssc(=O)c1C` is lower in logP: 2.45 for the first, 1.73 for the second.

First: Cc1ssc(=S)c1-c1ccccc1
Second: CCc1ssc(=S)c1-c1ccccc1
The logP of the first is lower: 3.17 for the first, 3.52 for the second.

Compared with `S=c1ssc2c1CCCCCC2`, `S=c1ssc2c1CCCCC2` is lower in logP: 3.75 for the first, 3.27 for the second.

First: Cc1ccc(-c2cc(=S)ss2)cc1
Second: COc1ccc(-c2cc(=S)ss2)cc1
The logP of the first is higher: 4.26 for the first, 3.82 for the second.

Going from `CCCc1cssc1=O` to `CCCc1cssc1=S`, the logP rises from 2.38 to 3.18.

Going from `Cc1cc(=O)ss1` to `Cc1cc(=S)ss1`, the logP rises from 1.26 to 1.87.

Going from `S=c1ssc2c1CCC2` to `CCc1ssc(=S)c1C`, the logP rises from 2.53 to 2.95.

`COc1ccc(-c2ssc(=S)c2C)cc1` and `Cc1c(-c2ccccc2)ssc1=S` are within 0.2 log units of each other in logP: 4.1 for the first, 3.95 for the second.

Going from `S=c1ssc2ccccc12` to `Cc1ssc(=S)c1Cc1ccccc1`, the logP rises from 3.57 to 3.78.

Going from `S=c1ccss1` to `CCc1cssc1=S`, the logP rises from 1.58 to 2.67.

First: Cc1ccc(-c2cssc2=S)cc1
Second: S=c1sscc1-c1ccccc1
The logP of the first is higher: 3.73 for the first, 3.2 for the second.

Compared with `CCc1cc(=S)ss1`, `CCCc1cc(=S)ss1` is higher in logP: 2.31 for the first, 2.83 for the second.

First: S=c1cc(-c2ccccc2)ss1
Second: S=c1cc(Cc2ccccc2)ss1
The logP of the first is higher: 3.67 for the first, 3.43 for the second.

First: CCc1ssc(=S)c1CC
Second: CCCc1ssc(=S)c1CC
The logP of the first is lower: 3.51 for the first, 3.76 for the second.

First: CCCCCc1cssc1=S
Second: CCCCc1cssc1=S
The logP of the first is higher: 4.06 for the first, 3.7 for the second.

`CCCc1ssc(=S)c1C` and `CCCc1c(C)ssc1=S` are within 0.2 log units of each other in logP: 3.42 for the first, 3.39 for the second.

With `CCc1c(C)ssc1=S` the logP was 2.94.
